SMILES strings stand for the structures.

One assay addresses T1, Human macrophage mannose receptor 1 (MRC1) (Homo sapiens, UniProt P22897).
T1 sequence (P22897 19-1456): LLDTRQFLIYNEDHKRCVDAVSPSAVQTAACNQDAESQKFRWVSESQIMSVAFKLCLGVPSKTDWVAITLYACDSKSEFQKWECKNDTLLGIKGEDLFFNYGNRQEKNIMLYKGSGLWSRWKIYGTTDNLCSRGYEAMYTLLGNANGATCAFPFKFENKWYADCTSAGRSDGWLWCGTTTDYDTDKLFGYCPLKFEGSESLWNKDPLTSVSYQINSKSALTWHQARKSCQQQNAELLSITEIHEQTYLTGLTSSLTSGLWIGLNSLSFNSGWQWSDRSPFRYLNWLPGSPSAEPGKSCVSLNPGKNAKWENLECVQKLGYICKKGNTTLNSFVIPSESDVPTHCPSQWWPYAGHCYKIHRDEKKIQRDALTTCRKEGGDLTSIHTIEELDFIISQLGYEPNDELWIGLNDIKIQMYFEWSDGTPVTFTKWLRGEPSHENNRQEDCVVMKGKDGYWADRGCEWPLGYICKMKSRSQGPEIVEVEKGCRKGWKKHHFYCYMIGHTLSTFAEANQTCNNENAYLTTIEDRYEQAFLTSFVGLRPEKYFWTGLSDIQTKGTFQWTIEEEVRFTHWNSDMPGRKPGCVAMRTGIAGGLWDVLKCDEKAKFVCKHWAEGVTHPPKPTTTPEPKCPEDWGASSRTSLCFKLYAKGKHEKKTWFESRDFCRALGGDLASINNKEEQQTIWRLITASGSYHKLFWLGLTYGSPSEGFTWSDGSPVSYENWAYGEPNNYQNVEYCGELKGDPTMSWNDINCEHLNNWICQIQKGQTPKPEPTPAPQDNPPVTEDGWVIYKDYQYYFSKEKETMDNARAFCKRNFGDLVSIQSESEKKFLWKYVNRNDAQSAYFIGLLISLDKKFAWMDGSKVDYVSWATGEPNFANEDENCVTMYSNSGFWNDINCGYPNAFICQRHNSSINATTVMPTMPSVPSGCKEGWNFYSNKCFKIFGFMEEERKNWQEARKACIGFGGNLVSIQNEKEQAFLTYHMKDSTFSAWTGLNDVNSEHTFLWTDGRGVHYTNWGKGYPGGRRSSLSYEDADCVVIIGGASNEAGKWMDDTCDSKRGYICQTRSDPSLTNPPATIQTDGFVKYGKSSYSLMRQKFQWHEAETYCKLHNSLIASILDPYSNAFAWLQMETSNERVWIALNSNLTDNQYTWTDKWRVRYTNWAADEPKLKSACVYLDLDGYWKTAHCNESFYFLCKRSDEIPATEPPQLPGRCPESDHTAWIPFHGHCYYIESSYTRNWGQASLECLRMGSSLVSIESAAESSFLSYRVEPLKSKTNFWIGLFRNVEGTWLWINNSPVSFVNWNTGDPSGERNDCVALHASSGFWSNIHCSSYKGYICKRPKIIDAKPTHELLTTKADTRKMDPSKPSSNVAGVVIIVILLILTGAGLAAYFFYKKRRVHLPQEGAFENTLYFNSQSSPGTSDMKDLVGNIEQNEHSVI
Put plainly: MRC1 competition binding assay with Eu-mannosylated-BSA. Conditions: MRC1 Binding IP, Method F: 384-well plate; IP = inflection point.
Procedure: The competition binding assay for Human macrophage mannose receptor 1 (MRC1) utilized a ligand, mannosylated-BSA labeled with the DELFIA Eu-N1-ITC reagent, as reported in the literature. Assay was performed either in a 96-well plate with 100 μL well volume (Method E) or in a 384-well plate with 25 μL well volume (Method F). […] The antibody was incubated in the plate for 1 hr at rt with shaking. The plate was washed with wash buffer 3-5 times followed by addition of MRC1 (2 ng/μl final concentration) in PBS containing 1% stabilizer BSA. The plate was incubated at rt with gentle shaking for 1 hr. The plate was washed three times with wash buffer. The IOC molecules in 12.5 μL (or 50 μL depending on plate format) buffer at appropriate concentrations were added followed by 12.5 μL (or 50 μL) Eu-mannosylated-BSA (0.1 nm final concentration) in 50 mM Tris, pH 7.5 containing 100 mM NaCl, 5 mM CaCl2, 1 mM MgCl2 and 0.2% stabilizer BSA. The plate was incubated for 2 hrs at rt with shaking followed by washing three times with wash buffer.
As for `CC(=O)[C@H](CCCCN)NC(=O)CCCCCNC(=O)[C@H](CCCCNC(=O)CCCCCNC(=O)CN(CC(=O)NCCO[C@@H]1O[C@@H](C)[C@@H](O)[C@@H](O)[C@@H]1O)CC(=O)NCCO[C@@H]1O[C@@H](C)[C@@H](O)[C@@H](O)[C@@H]1O)NC(=O)[C@H](CCCCNC(=O)CCCCCNC(=O)CN(CC(N)=O)CC(=O)NCCO[C@@H]1CC(C)[C@@H](O)[C@@H](O)[C@@H]1O)NC(=O)CCCCCNC(=O)CN(CC(=O)NCCO[C@@H]1O[C@@H](C)[C@@H](O)[C@@H](O)[C@@H]1O)CC(=O)NCCO[C@@H]1O[C@@H](C)[C@@H](O)[C@@H](O)[C@@H]1O` (some centres unmarked) [IOC-41], the IC50 is 6.09 nM.

Still in this assay, the particulars now being: Method E: 96-well plate; IP = inflection point; read-out: MRC1 Binding IP.
With `CC(=O)[C@H](CCCCN)NC(=O)CCCCCNC(=O)[C@H](CCCCNC(=O)CCCCCNC(=O)CN(CC(=O)NCCO[C@H]1O[C@H](CO)[C@@H](O)[C@H](O)[C@@H]1O)CC(=O)NCCO[C@H]1O[C@H](CO[C@H]2O[C@H](CO)[C@@H](O)[C@H](O)[C@@H]2O)[C@@H](O)[C@H](O[C@H]2O[C@H](CO)[C@@H](O)[C@H](O)[C@@H]2O)[C@@H]1O)NC(=O)[C@H](CCCCNC(=O)CCCCCNC(=O)CN(CC(=O)NCCO[C@H]1O[C@H](CO)[C@@H](O)[C@H](O)[C@@H]1O)CC(=O)NCCO[C@H]1O[C@H](CO[C@H]2O[C@H](CO)[C@@H](O)[C@H](O)[C@@H]2O)[C@@H](O)[C@H](O[C@H]2O[C@H](CO)[C@@H](O)[C@H](O)[C@@H]2O)[C@@H]1O)NC(=O)CCCCCNC(=O)CN(CC(=O)NCCO[C@H]1O[C@H](CO)[C@@H](O)[C@H](O)[C@@H]1O)CC(=O)NCCO[C@H]1O[C@H](CO[C@H]2O[C@H](CO)[C@@H](O)[C@H](O)[C@@H]2O)[C@@H](O)[C@H](O[C@H]2O[C@H](CO)[C@@H](O)[C@H](O)[C@@H]2O)[C@@H]1O` [IOC-39], the IC50 amounted to 2.38 nM.

The same assay, now with this note: Method F: 384-well plate; IP = inflection point; read-out: MRC1 Binding IP.
For `CC(=O)[C@H](CCCCN)NC(=O)CCCCC(=O)NCC(=O)N[C@@H](CCC(=O)N[C@@H](CCC(=O)NCCCCCC(=O)N(CCOC1O[C@H](CO)[C@@H](O)[C@H](O)[C@@H]1O)CCO[C@H]1O[C@H](CO)[C@@H](O)[C@H](O)[C@@H]1O)C(=O)NCCCCCC(=O)N(CCOC1O[C@H](CO)[C@@H](O)[C@H](O)[C@@H]1O)CCOC1O[C@H](CO)[C@@H](O)[C@H](O)[C@@H]1O)C(=O)NCCCCCC(=O)NCCO[C@H]1O[C@H](CO[C@H]2O[C@H](CO)[C@@H](O)[C@H](O)[C@@H]2O)[C@@H](O)[C@H](O[C@H]2O[C@H](CO)[C@@H](O)[C@H](O)[C@@H]2O)[C@@H]1O` (some centres unmarked) [IOC-32], the IC50 came out at 604 nM. Consider `CC(=O)[C@H](CCCCN)NC(=O)CCCCC(=O)NCC(=O)N[C@@H](CCC(=O)N[C@@H](CCC(=O)NCCCCCC(=O)N(CCOC1O[C@H](CO)[C@@H](O)[C@H](O)[C@@H]1O)CCO[C@H]1O[C@H](CO)[C@@H](O)[C@H](O)[C@@H]1O)C(=O)NCCCCCC(=O)N(CCOC1O[C@H](CO)[C@@H](O)[C@H](O)[C@@H]1O)CCOC1O[C@H](CO)[C@@H](O)[C@H](O)[C@@H]1O)C(=O)NCCCCCC(=O)NCCO[C@H]1O[C@H](CO[C@H]2O[C@H](CO)[C@@H](O)[C@H](O)[C@@H]2O)[C@@H](O)[C@H](O[C@H]2O[C@H](CO)[C@@H](O)[C@H](O)[C@@H]2O)[C@@H]1O` (some centres unmarked) [IOC-33], for which the IC50 was found to be 10 nM. Consider `CC(=O)[C@H](CCCCN)NC(=O)CCCCC(=O)NCC(=O)N[C@@H](CCC(=O)N[C@@H](CCC(=O)NCCCCCC(=O)N(CCOC1O[C@H](CO)[C@@H](O)[C@H](O)[C@@H]1O)CCO[C@H]1O[C@H](CO)[C@@H](O)[C@H](O)[C@@H]1O)C(=O)NCCCCCC(=O)N(CCOC1O[C@H](CO)[C@@H](O)[C@H](O)[C@@H]1O)CCOC1O[C@H](CO)[C@@H](O)[C@H](O)[C@@H]1O)C(=O)NCCCCCC(=O)NCCO[C@H]1O[C@H](CO[C@H]2O[C@H](CO)[C@@H](O)[C@H](O)[C@@H]2O)[C@@H](O)[C@H](O[C@H]2O[C@H](CO)[C@@H](O)[C@H](O)[C@@H]2O)[C@@H]1O` (some centres unmarked) [IOC-34], for which the IC50 turned out to be 7.93 nM.

As for `CC(=O)[C@H](CCCCN)NC(=O)CCCCC(=O)NCC(=O)N[C@@H](CCC(=O)N[C@@H](CCC(=O)NCCCCCC(=O)N(CCOC1O[C@H](CO)[C@@H](O)[C@H](O)[C@@H]1O)CCO[C@H]1O[C@H](CO)[C@@H](O)[C@H](O)[C@@H]1O)C(=O)NCCCCCC(=O)N(CCOC1O[C@H](CO)[C@@H](O)[C@H](O)[C@@H]1O)CCOC1O[C@H](CO)[C@@H](O)[C@H](O)[C@@H]1O)C(=O)NCCCCCC(=O)NCCO[C@H]1O[C@H](CO[C@H]2O[C@H](CO)[C@@H](O)[C@H](O)[C@@H]2O)[C@@H](O)[C@H](O[C@H]2O[C@H](CO)[C@@H](O)[C@H](O)[C@@H]2O)[C@@H]1O` (some centres unmarked) [IOC-35], the IC50 is 16.6 nM. Take `CC(=O)[C@H](CCCCN)NC(=O)CCCCC(=O)NCC(=O)N[C@@H](CCC(=O)N[C@@H](CCC(=O)NCCCCCC(=O)N(CCOC1O[C@H](CO)[C@@H](O)[C@H](O)[C@@H]1O)CCOC1O[C@H](CO)[C@@H](O)[C@H](O)[C@@H]1O)C(=O)NCCCCCC(=O)N(CCOC1O[C@H](CO)[C@@H](O)[C@H](O)[C@@H]1O)CCOC1O[C@H](CO)[C@@H](O)[C@H](O)[C@@H]1O)C(=O)NCCCCCC(=O)NCCO[C@H]1O[C@H](CO[C@H]2O[C@H](CO)[C@@H](O)[C@H](O)[C@@H]2O)[C@@H](O)[C@H](O[C@H]2O[C@H](CO)[C@@H](O)[C@H](O)[C@@H]2O)[C@@H]1O` (some centres unmarked) [IOC-38]: the IC50 worked out at 9.78 nM. For `CC(=O)[C@H](CCCCN)NC(=O)CCCCCNC(=O)[C@H](CCCCNC(=O)CCCCCNC(=O)CN(CC(=O)NCCO[C@H]1O[C@H](CO)[C@@H](O)[C@H](O)[C@@H]1O)CC(=O)NCCO[C@H]1O[C@H](CO)[C@@H](O)[C@H](O)[C@@H]1O)NC(=O)[C@H](CCCCNC(=O)CCCCCNC(=O)CN(CC(=O)NCCO[C@H]1O[C@H](CO)[C@@H](O)[C@H](O)[C@@H]1O)CC(=O)NCCO[C@H]1O[C@H](CO)[C@@H](O)[C@H](O)[C@@H]1O)NC(=O)CCCCCNC(=O)CN(CC(=O)NCCO[C@H]1O[C@H](CO)[C@@H](O)[C@H](O)[C@@H]1O)CC(=O)NCCO[C@H]1O[C@H](CO)[C@@H](O)[C@H](O)[C@@H]1O` [IOC-40], the IC50 was determined as 24.7 nM.

For the compound `CC(=O)[C@H](CCCCN)NC(=O)CCCCCNC(=O)[C@H](CCCCNC(=O)CCOCCOCCNC(=O)CN(CC(=O)NCCO[C@@H]1O[C@@H](C)[C@@H](O)[C@@H](O)[C@@H]1O)CC(=O)NCCO[C@@H]1O[C@@H](C)[C@@H](O)[C@@H](O)[C@@H]1O)NC(=O)[C@H](CCCCNC(=O)CCOCCOCCNC(=O)CN(CC(=O)NCCO[C@@H]1O[C@@H](C)[C@@H](O)[C@@H](O)[C@@H]1O)CC(=O)NCCO[C@@H]1O[C@@H](C)[C@@H](O)[C@@H](O)[C@@H]1O)NC(=O)CCOCCOCCNC(=O)CN(CC(=O)NCCO[C@@H]1O[C@@H](C)[C@@H](O)[C@@H](O)[C@@H]1O)CC(=O)NCCO[C@@H]1O[C@@H](C)[C@@H](O)[C@@H](O)[C@@H]1O` [IOC-43], the IC50 came to 8.25 nM. For the compound `CC(=O)[C@H](CCCCN)NC(=O)CCCCCNC(=O)[C@H](CCCCNC(=O)[C@H](CCCCNC(=O)CCCCCNC(=O)CN(CC(=O)NCCO[C@@H]1O[C@@H](C)[C@@H](O)[C@@H](O)[C@@H]1O)CC(=O)NCCO[C@@H]1O[C@@H](C)[C@@H](O)[C@@H](O)[C@@H]1O)NC(=O)CN(CC(=O)NCCO[C@@H]1O[C@@H](C)[C@@H](O)[C@@H](O)[C@@H]1O)CC(=O)NCCO[C@@H]1O[C@@H](C)[C@@H](O)[C@@H](O)[C@@H]1O)NC(=O)CN(CC(=O)NCCO[C@@H]1O[C@@H](C)[C@@H](O)[C@@H](O)[C@@H]1O)CC(=O)NCCO[C@@H]1O[C@@H](C)[C@@H](O)[C@@H](O)[C@@H]1O` [IOC-45], the IC50 is 8.91 nM. For `CC(=O)[C@H](CCCCN)NC(=O)CCCCCNC(=O)[C@H](CCCCNC(=O)[C@H](CCCCNC(=O)CCCCCNC(=O)CN(CC(=O)NCCO[C@H]1O[C@H](CO)[C@@H](O)[C@H](O)[C@@H]1O)CC(=O)NCCO[C@H]1O[C@H](CO)[C@@H](O)[C@H](O)[C@@H]1O)NC(=O)CN(CC(=O)NCCO[C@H]1O[C@H](CO)[C@@H](O)[C@H](O)[C@@H]1O)CC(=O)NCCO[C@H]1O[C@H](CO)[C@@H](O)[C@H](O)[C@@H]1O)NC(=O)CN(CC(=O)NCCO[C@@H]1O[C@@H](C)[C@@H](O)[C@@H](O)[C@@H]1O)CC(=O)NCCO[C@@H]1O[C@@H](C)[C@@H](O)[C@@H](O)[C@@H]1O` [IOC-46], the IC50 stood at 58.3 nM.

For the origin of these results see patent publication US12427187B2, “Glucose-responsive insulin conjugates” (priority 2019, dated 2025).
